Legend:
GPIIb-IIIa [1] = molecular target: T1, GPIIb-IIIa (Homo sapiens, UniProt P05106+P08514); assay: Competition assay: synthetic polypeptide inhibition of biotinylated Fn binding to purified GPIIb-IIIa; details: for inhibition of Fn binding to GPIIb-IIIa: tested at 200 μM polypeptide
T1 construct: platelet membrane GPIIb-IIIa protein from lysed platelets; from tissue
Description: The competition assays are performed as described by Charo et al., J. Biol. Chem., 266:1415-1421 (1991). The competition assay is performed by first admixing into individual wells of a 96 well microtiter plate (Immunlon, Dynatech) 10 μg/ml of purified GPIIb-IIIa, prepared in Example 1, diluted in HEPES-saline buffer, pH 7.4, consisting of 10 mM HEPES, 150 mM NaCl 1 mM CaCl2 and 1 mMMgCl2. The plates are maintained for 16 hours at 4° C. to allow the purified receptor to adsorb onto the walls of the wells. The receptor-coated wells are then washed two times with Modified Tyrode's buffer, prepared as described in Example 1, to remove any non-bound receptor from the receptor-coated wells. Non-receptor-occupied sites on the microtiter wells are blocked by admixing 5% BSA dissolved in Modified Tyrode's buffer into each well and maintaining the plate for 2 hours at room temperature.
After removing the blocking solution and washing the blocked wells as described above, 50 μl of a 10 nM solution of biotinylated Fn in Modified Tyrode's buffer is admixed into each well in the presence of polypeptides prepared in Example 9a ranging in concentration from 0.1 μM to 200 μM polypeptide to form a solid-liquid phase receptor-protein admixture. Fn admixed in the absence of polypeptides served as a positive control for the competition assay. Purified Fn is prepared as described in Example 2.
The resultant purified Fn is then biotinylated as described by Dale et al., Blood, 77:1096-1099 (1991). Briefly, for biotinylation, Fn is first dialyzed into 0.1M NaHCO3 containing 0.1M NaCl at pH 8.0 and centrifuged at 100,000× g for 30 minutes at 4° C. to remove any particulate matter. The protein concentration is adjusted to 0.5 mg/ml in 50 mM sodium borate at pH 8.5. […]
The Fn-peptide admixtures are maintained in GPIIb-IIIa-coated wells for 2 hours at room temperature to allow the biotinylated Fn to bind to the receptor. Following this maintenance period, the reacted wells are washed as described above and the amount of biotinylated Fn bound to GPIIb-IIIa is determined by admixing 0.1 ml avidin bound to biotinylated horseradish peroxidase H (Hrp) (Sigma, St. Louis, Mo.) at a 1:2000 dilution to form an avidin-biotinylated Fn admixture. […] Excess avidin Hrp is removed by washing as described and the presence of biotinylated Fn bound to purified GPIIb-IIIa is detected by admixture of 50 μl of freshly prepared chromogenic substrate solution containing 4.0 mg/ml 0-phenylenediamine and 0.012% (v/v) hydrogen peroxide in CP buffer as described in Example 3a. After maintaining the color developing-reaction admixture for 10 minutes at 20° C., the reaction is stopped with the admixture of 2N H2 SO4 and the stopped reactions are measured for absorbance as described in Example 3a.

GPIIb-IIIa [2] = molecular target: T1, GPIIb-IIIa; assay: Direct binding of 125I-labelled ligands to microtiter wells coated with purified GPIIb-IIIa
From the text: To determine if the insert coded polypeptide containing fibronectin residues 1235-1436 bound GPIIb-IIIa, the capacity of microtiter wells coated with purified GPIIb-IIIa to bind the radiolabelled fusion-protein preparation was ascertained (Table 3). In addition, the radiolabelled material bound to the insolubilized GPIIb-IIIa was recovered and analyzed by SDS-PAGE followed by radioautography. […] The isolated protein products were a mixture of insert coded polypeptides containing fusion protein and maltose binding protein breakdown products. Only those bands containing the insert-coded polypeptide bound to the insolubilized GPIIb-IIIa and that binding was inhibitable by either EDTA or the monoclonal antibody FnI-16.

GPIIb-IIIa [3] = molecular target: T1, GPIIb-IIIa; assay: Inhibition of 125I-Fn binding to immobilized GPIIb-IIIa by fusion proteins (competition binding); details: varying concentrations, FIG. 3
Description: The ability of a fusion protein or polypeptide of the present invention to inhibit the binding interaction between GPIIb-IIIa and either fibronectin or fibrinogen was measured by competition binding to immobilized GPIIb-IIIa.
Incubate the GPIIb-IIIa in the plate for 16 hours at 4° C., then the unbound material is removed from the wells which are then blocked with 150 μl of 5% BSA in the same buffer for 1 hour at room temperature. Wash the wells three times with 150 μl of Tyrode's buffer with 5 mM HEPES, 1 mM MgCl2, 1 mg/ml dextrose, 1 mg/ml BSA. […] Incubate 4 hours to overnight at room temperature (with lead shield).
Carefully remove radioactive samples and wash 3 times with 150 μl Tyrodes with 5 mM HEPES, 1 mMMgCl2, 1 mg/ml dextrose, 1 mg/ml BSA. Count with a Gamma Counter and elute by boiling in SDS-PAGE loading Buffer.
In an alternative embodiment, non-radioactive Fn may be used instead of radioactive, and detected by reacting with an appropriate anti-Fn antibody and HRP-conjugated secondary antibody. Using this variation, each antibody is incubated with the washed plate for 1 hr. The anti-Fn antibody is titrated, but a 1:1000 dilution of HRP-conjugated antibody from most manufacturers works fine.

Substance: (2:73-274): polypeptide of SEQ ID NO 2 residues 73-274, Fn residues 1235-1436
- inhibition of Fn binding to GPIIb-IIIa (GPIIb-IIIa [1]): inhibit Fn binding to GPIIb-IIIa

Substance: (2:197-274): polypeptide of SEQ ID NO 2 residues 197-274, Fn residues 1359-1436
- inhibition of Fn binding to GPIIb-IIIa (GPIIb-IIIa [1]): inhibit Fn binding to GPIIb-IIIa

Substance: (2:248-274): synthetic polypeptide of SEQ ID NO 2 residues 248-274, Fn residues 1410-1436 (IGQQSTVSDVPRDLEVVAATPTSLLIS)
- polypeptide concentration for maximal inhibition of Fn binding to GPIIb-IIIa (GPIIb-IIIa [1]; 10 nM biotinylated Fn): approximately 200 μM
- competitive inhibition of Fn binding to purified GPIIb-IIIa (GPIIb-IIIa [1]; 10 nM biotinylated Fn, 0.1 to 200 μM polypeptide): competitively inhibits

Substance: Fibronectin
- binding of radiolabelled ligand to insolubilized GPIIb-IIIa (GPIIb-IIIa [2]; GPIIb-IIIa coated wells): Specific binding
- 125I-labelled ligand bound to GPIIb-IIIa (GPIIb-IIIa [2]; inhibitor 2 mM EDTA): 8 Counts × 10^-3
- 125I-labelled ligand bound to GPIIb-IIIa (GPIIb-IIIa [2]; inhibitor Mab 16.12): 12 Counts × 10^-3
- 125I-labelled ligand bound to GPIIb-IIIa (GPIIb-IIIa [2]; no inhibitor): 42 Counts × 10^-3
- inhibition of fibronectin binding to purified GPIIb-IIIa (GPIIb-IIIa [3]): inhibited fibronectin binding

From patent publication US5492890A, “Polypeptides for promoting cell attachment” (The Scripps Research Institute, priority 1991, dated 1996)
